Data as given in patent US20230416293A1, “SYNTHESIS OF [18F]-LABELED THYMIDINE ANALOGUES” (UNIVERSITY OF SOUTHERN CALIFORNIA, priority 2020, published 2023).
Values belong to the compound of their own block, whether it stands above or below them.

Columns and labels:
[1] = tested on: U-87 MG tumor; test: microPET imaging of subcutaneous U-87 MG tumor-bearing nude mice; assay type: in vivo; conditions: U-87 MG tumor model; for tumor uptake: intravenous, n=3
Method: (§1) After the intravenous injection of [^18F]FMAU at 1 h and 2 h, the mice (n=3/group) were scanned through a microPET imaging system. […] For microPET scans, radioactivity accumulations in tumors and major tissues/organs were quantified by calculating the ROIs that comprised the entire organ on the coronal images.
(§2) Tumor cells were cultured in Dulbecco's Modified Eagle Medium (DMEM) supplemented with 10% fetal bovine serum at 37° C. in a humidified incubator containing 5% CO2.
(§3) Both MDA-MB-231 and U-87 MG tumor xenograft models (n=3/group) were generated by subcutaneous injection of 5×10^6 tumor cells into the front right flank of female athymic nude mice (4-6 weeks old) purchased from Envigo Inc., Indianapolis, IN. The tumors were permitted to grow 2-4 weeks until approximate 0.6-0.8 cm^3 in volume.
(§4) MicroPET scans were carried out using a rodent scanner (Siemens Inveon microPET scanner, Siemens Medical Solutions). About 7.4 MBq (200 μCi) of [^18F]FMAU was injected through the tail vein under isoflurane anesthesia condition. Five-minute static scans were obtained at 60- and 120-min post-injection (p.i.). The 3D-OSEM algorithm was applied for image reconstruction. For each microPET scan, the regions of interest (ROIs) were drawn over tumor, muscle, liver, and kidneys on the decay-corrected whole-body coronal images. The tumor-to-muscle (T/M), tumor-to-liver (T/L), and tumor-to-kidney (T/K) ratios were then calculated.

[2] = 1-octanol/PBS partition coefficient (Log P); assay type: physicochemical; conditions: for Partition coefficients of 1-octanol/PBS: room temperature, PBS pH 7.4, quintuplicate
[3] = tested on: MDA-MB-231 tumor; test: microPET imaging of subcutaneous MDA-MB-231 tumor-bearing nude mice; assay type: in vivo; conditions: MDA-MB-231 tumor model; for tumor uptake: intravenous, n=3
Method: as §1, §2, §3, §4

[4] = 1-octanol/PBS pH 7.4, room temperature, quintuplicate

Compound: O=c1[nH]c(=O)n([C@@H]2O[C@H](CO)[C@@H](O)[C@@H]2F)cc1Br [[^18F]FBAU, 1-(2-deoxy-2-fluoro-β-D-arabinofuranosyl)-5-bromouracil]
logP [2, 4]: -0.367 ± 0.025

Compound: O=c1[nH]c(=O)n([C@@H]2O[C@H](CO)[C@@H](O)[C@@H]2[18F])cc1Cl [[^18F]FCAU, 2′-deoxy-2′-[^18F]fluoro-5-chloro-1-β-D-arabinofuranosyluracil]
Log P [2, 4]: −0.477±0.030
Partition coefficients of 1-octanol/PBS [2]: 0.334 ± 0.022

Compound: CCc1cn([C@@H]2O[C@H](CO)[C@@H](O)[C@@H]2[18F])c(=O)[nH]c1=O [[^18F]FEAU, 2′-deoxy-2′-[^18F]fluoro-5-ethyl-1-β-D-arabinofuranosyluracil]
Log P [2, 4]: −0.077±0.018
Partition coefficients of 1-octanol/PBS [2]: 0.837 ± 0.035

Compound: O=c1ccn([C@@H]2O[C@H](CO)[C@@H](O)[C@@H]2[18F])c(=O)[nH]1 [[^18F]FAU, 2′-Deoxy-2′-[^18F]fluoro-1-β-D-arabinofuranosyluracil]
Log P [2, 4]: −0.943±0.041
Partition coefficients of 1-octanol/PBS [2]: 0.114 ± 0.011

The remaining lines, values ahead:

ratio of tumor uptake to kidney uptake (T/K) ([1]; 1 h p.i.): 1.4±0.2
ratio of tumor uptake to liver uptake (T/L) ([1]; 1 h p.i.): 1.4±0.3
ratio of tumor uptake to muscle uptake (T/M) ([1]; 1 h p.i.): 1.8±0.2
tumor uptake ([1]; 1 h p.i.): 6.0±0.2 % ID/g
ratio of tumor uptake to kidney uptake (T/K) ([1]; 2 h p.i.): 1.3±0.1
ratio of tumor uptake to liver uptake (T/L) ([1]; 2 h p.i.): 1.5±0.3
ratio of tumor uptake to muscle uptake (T/M) ([1]; 2 h p.i.): 1.9±0.3
tumor uptake ([1]; 2 h p.i.): 5.6±0.4 % ID/g
Log P [2, 4]: −0.577±0.003
Partition coefficients of 1-octanol/PBS [2]: 0.265 ± 0.002
ratio of tumor uptake to kidney uptake (T/K) ([3]; 1 h p.i.): 1.9±0.5
ratio of tumor uptake to liver uptake (T/L) ([3]; 1 h p.i.): 2.1±0.2
ratio of tumor uptake to muscle uptake (T/M) ([3]; 1 h p.i.): 2.8±0.3
tumor uptake ([3]; 1 h p.i.): 6.4±0.4 % ID/g
ratio of tumor uptake to kidney uptake (T/K) ([3]; 2 h p.i.): 1.9±0.5
ratio of tumor uptake to liver uptake (T/L) ([3]; 2 h p.i.): 2.5±0.2
ratio of tumor uptake to muscle uptake (T/M) ([3]; 2 h p.i.): 3.2±0.7
tumor uptake ([3]; 2 h p.i.): 7.2±0.6 % ID/g
Compound: Cc1cn([C@@H]2O[C@H](CO)[C@@H](O)[C@@H]2[18F])c(=O)[nH]c1=O [[^18F]FMAU, 2′-Deoxy-2′-[^18F]fluoro-5-methyl-1-β-D-arabinofuranosyluracil]

Log P [2, 4]: −0.108±0.013
Partition coefficients of 1-octanol/PBS [2]: 0.780 ± 0.024
Compound: O=c1[nH]c(=O)n([C@@H]2O[C@H](CO)[C@@H](O)[C@@H]2[18F])cc1I [[^18F]FIAU, 2′-deoxy-2′-[^18F]fluoro-5-iodo-1-β-D-arabinofuranosyluracil]

Log P [2, 4]: −0.952±0.023
Partition coefficients of 1-octanol/PBS [2]: 0.113 ± 0.006
Compound: O=c1[nH]c(=O)n([C@@H]2O[C@H](CO)[C@@H](O)[C@@H]2[18F])cc1F [[^18F]FFAU, 2′-deoxy-2′-[^18F]fluoro-5-fluoro-1-β-D-arabinofuranosyluracil]
